The test system of one assay is E15 rat spinal neurons. In words: Growth of spinal neurons on CSPG substrates. The class given is cell-based. To be noted: two days. Here is the method: E15 rat spinal neurons were cultured on LN, or on LN and CSPGs (LN/CSPG) for two days. They were stained for nuclei (blue) and neuronal beta-tubulin (green).
Assay [1] has as its system cerebellar granule neurons (CGNs). In words: Neurite growth of CGNs on CSPG substrates. It counts as cell-based. To be noted: laminin/CSPG substrate. Here is the method:
(§1) The triazine compounds were added to cultures of primary cerebellar granule neurons (CGNs) to test their ability to promote neurite growth on an inhibitory substrate (PDL/central nervous system myelin). […] The compounds can promote growth on other inhibitory substrates as well. When a mixture of inhibitory chondroitin sulfate proteoglycans (CSPGs) on PDL was used as a substrate, neurite growth of CGNs was increased by each compound, as shown in FIG. 3. The compounds evidently act by overcoming inhibitory signals.

The next assay deals with CGNs. In words: Neurite growth of CGNs on permissive substrates (PDL, laminin). It counts as cell-based. Particulars: CGNs on PDL or laminin (LN). As to the method:
CGNs were cultured on PDL or laminin (LN) substrates in the absence or presence of one of the four lead compounds, or on LN in the presence of Gö6976. Neurons grew neurites on PDL, and grew longer neurites on LN.
as §1

The subject of a further assay is cAMP levels in CGNs. In words: cAMP levels in CGNs. The class given is cell-based. Particulars: two hours, PDL or PDL/myelin, forskolin at concentrations indicated in chart. Here is the method:
CGNs were cultured for two hours on PDL or on PDL/myelin in the absence or presence of the four lead compounds at […] (F) at the concentrations indicated in the chart. Forskolin increased neuronal cAMP levels by 100-250-fold, while the lead compounds produced no significant increases.
(In general: cAMP levels reflect the balance of adenylyl cyclase and phosphodiesterase activity.)

Assay [2] relates to cerebellar granule neurons (CGNs). In words: High-content screen and dose-response of CGN neurite growth on PDL/myelin. It counts as cell-based. Particulars: library compounds at 5 μM shown. As to the method:
FIG. 2 is data from a high-content screen of neurite growth on […] (PDL)/myelin. The data for 312 compounds are summarized for total neurite growth normalized to the PDL control. The first three bars show PDL (blue), PDL/myelin (red), and PDL/myelin/dbcAMP (green). […] Straight lines drawn across data represent growth levels with dbcAMP, PDL, myelin, and 50% of the myelin level. The majority of compounds had little or no effect at the concentrations tested (5 μM is shown). […] These four compounds are subsequently referred to as lead compounds.
CGNs were cultured on PDL (control) or on myelin in the presence of the 4 hit compounds at concentrations (in nM) shown. The Cellomics Kinetic Scan Reader (an automated microscope) was used to evaluate average neurite length per neuron in each condition. Growth on myelin in the absence of compounds was set at 100% (origin of y-axis). The black horizontal line represents growth on the control (PDL) substrate; thus growth at or above this line represents complete reversal of the myelin inhibition. Each compound completely reversed growth inhibition by the myelin.
The triazine compounds were added to cultures of primary cerebellar granule neurons (CGNs) to test their ability to promote neurite growth on an inhibitory substrate (PDL/central nervous system myelin). […] The compounds can promote growth on other inhibitory substrates as well. […]

A further assay has as its system cPKC. In words: In vitro PKC assay. It counts as biochemical. Particulars: preincubated directly with the enzyme; lead compounds at concentrations optimally effective on cells.

For the compound `Cn1c2ccccc2c2c3c(c4c5ccccc5n(CCC#N)c4c21)CNC3=O` [Go6976], the “growth of spinal neurons on LN/CSPG” value in the assay on E15 rat spinal neurons is “somewhat restored”. In addition, in assay [1], the “neurite growth on LN/CSPG mixture” value is “largely reversed”. In addition, in the assay on CGNs, the “neurite growth on permissive substrates” value was “significantly increased growth on LN”.

As to `C=C[C@@]1(C)CC(=O)[C@]2(O)[C@@]3(C)[C@@H](O)CCC(C)(C)[C@@H]3[C@H](O)[C@H](OC(C)=O)[C@@]2(C)O1` [Forskolin, forskolin], the “increase of neuronal cAMP levels” value with cAMP levels in CGNs is on record as 100-250 fold.

Regarding `CCCC(=O)Nc1ncnc2c1ncn2[C@@H]1O[C@@H]2COP(=O)(O)O[C@H]2[C@H]1OC(=O)CCC` [dbcAMP], the “total neurite growth normalized to the PDL control” value in assay [2] is recorded as “inhibition is overcome”.

For Calphostin C, the “effect on cPKC activity” value in the assay with cPKC was “inhibits cPKC”.
